Literature values, collected in patent US11589577B2, “Nanotechnology system for agricultural applications” (priority 2012, dated 2023).

Conditions: binds soil ions; stated as known issue

## abamectin
  soil mobility (general statement): poor soil mobility
